The values below come from ChEMBL document CHEMBL6182916, “Unexpected Discovery of a Novel Triphenylphosphonium Alkylalcohol That Triggers Cancer Cell Death via Mitophagy and Ferroptosis” (J Med Chem, 2025).

The nature of data set [1]: Antiproliferative activity against human LO2 cells assessed as inhibition of cell growth measured after 72 hrs by MTT assay. The class given is toxicity, cell-based, L02. (Tetrazolium assays rely on reduction of a dye to a coloured formazan, in cell work by metabolically active cells.)
A short description of data set [2]: Antiproliferative activity against HEK293T cells assessed as inhibition of cell growth measured after 72 hrs by MTT assay. The format is toxicity, cell-based, HEK-293T. Conditions: human.
A further data set deals with A549. The data set can be described thus: Antiproliferative activity against human A549 cells assessed as inhibition of cell growth measured after 72 hrs by MTT assay. Conditions: A549, 72 h. The class given is functional, cell-based.
The next data set has as its system NCI-H1650. Put plainly: Antiproliferative activity against human NCI-H1650 cells assessed as inhibition of cell growth measured after 72 hrs by MTT assay. The format is functional, cell-based. Conditions: NCI-H1650, 72 h.
The subject of a further data set is HCT-116. Put plainly: Antiproliferative activity against human HCT-116 cells assessed as inhibition of cell growth measured after 72 hrs by MTT assay. The class given is functional, cell-based. Conditions: HCT-116, 72 h.
The next data set concerns NCI-H1299. Put plainly: Antiproliferative activity against human NCI-H1299 cells assessed as inhibition of cell growth measured after 72 hrs by MTT assay. Conditions: NCI-H1299, 72 h. The class given is functional, cell-based.
In data set [3] the test system is Osimertinib-resistant NCI-H1975 cell. The data set can be described thus: Antiproliferative activity against human Osimertinib-resistant NCI-H1975 cell assessed as inhibition of cell growth measured after 72 hrs by MTT assay. The class given is functional, cell-based.
In data set [4] the test system is HCC827. The data set can be described thus: Downregulation of VDAC1 expression level in human HCC827 cells 0.5 uM by Western blot analysis. The class given is functional, cell-based. Conditions: time 3-24 hrs. (Immunoblotting shows a protein as a band on a membrane.)
Data set [5] has as its system HCC827. The data set can be described thus: Induction of cell cycle arrest in human HCC827 cells assessed as accumulation of cells at S phase at 0.2 uM incubated for 24 hrs by PI staining based flow cytometry analysis (reference value: 26.41%). The format is functional. A general note: Flow cytometry measures light scatter and fluorescence of single cells or particles in a stream.

The test system of data set [6] is HCC827. Put plainly: Induction of ferroptosis in human HCC827 cells assessed as decrease in glutathione reductase activity at 0.25 to 0.5 uM incubated for 24 hrs by DTNB solution based based microplate reader analysis. The format is functional, cell-based. Conditions: dose 0.25-0.5 µM.
Data set [7] concerns HCC827. The data set can be described thus: Induction of mitochondrial dysfunction in human HCC827 cells assessed as mitochondrial shrinkage by TEM analysis. The class given is functional, cell-based.
The subject of data set [8] is HCC827. The data set can be described thus: Induction of apoptosis in human HCC827 cells assessed as viable cells at 0.5 uM measured after 48 hrs by annexin V and PI staining based flow cytometry analysis (reference value: 96.74%). The format is functional. Conditions: read-out: Activity.
The subject of data set [9] is HCC827. The data set can be described thus: Induction of apoptosis in human HCC827 cells assessed as early apoptotic cells at 1 uM measured after 24 hrs by annexin V and PI staining based flow cytometry analysis (reference value: 1.80%). The class given is functional.
In data set [10] the test system is HCC827. Put plainly: Induction of apoptosis in human HCC827 cells assessed as necrotic cells at 1 uM measured after 24 hrs by annexin V and PI staining based flow cytometry analysis (Rvb =0.84%). The format is functional.
Data set [11] deals with HCC827. Put plainly: Induction of apoptosis in human HCC827 cells assessed as necrotic cells at 1 uM measured after 36 hrs by annexin V and PI staining based flow cytometry analysis (Rvb =0.84%). The class given is functional.
In data set [12] the test system is HCC827. Put plainly: Downregulation of SDHB protein level in human HCC827 cells at 0.25 to 0.5 uM measured after 12 hrs. The format is functional, cell-based. Conditions: dose 0.25-0.5 µM.
Data set [13] has as its system HCC827. The data set can be described thus: Inhibition of cell migration in human HCC827 cells at 0.05 to 0.1 uM incubated for 24 hrs by crystal violet staining based transwell assay. The format is functional. Conditions: dose 0.05-0.1 µM.
Data set [14] in a line: Toxicity in female BALB/c mouse assessed as histopathological changes in heart at 30 mg/kg, ip measured for 7 days by H and E staining based analysis. Conditions: in vivo, 168 h, time 7 day. The class given is organism-based.
Data set [15] can be described thus: Toxicity in male Kunming mouse assessed as change in body weight at 70 mg/kg, ip measured every two days for 7 days. The class given is organism-based. Conditions: in vivo, 168 h, time 7 day.
Data set [16] can be described thus: Toxicity in female nude mouse assessed as effect om weight loss at 5 to 10 mg/kg, ip measured after 14 days. The format is organism-based. Conditions: in vivo, 336 h, dose 5-10 mg/kg, time 14 day.
For data set [17], the system named is HeLa. The data set can be described thus: Induction of mitophagy in human HeLa cells harbouring mCherry-GFP tag assessed as reduction in GFP fluorescence at 0.5 uM incubated for 24 hrs by confocal microscopy analysis. The format is functional, cell-based.
Data set [18] concerns HeLa. Put plainly: Induction of mitophagy in human HeLa cells harbouring mCherry-GFP tag assessed as visible mCherry fluorescence at 0.5 uM incubated for 24 hrs by confocal microscopy analysis. The class given is functional, cell-based.

Structures are written as SMILES. Activity calls are given as the source filed them. No cut-off for these calls is given here.

The term IC50 denotes the concentration that gives 50% inhibition.

With `Cc1ccc([P+](CCCCCCCCCCO)(c2ccc(C)cc2)c2ccc(C)cc2)cc1.[Br-]`, the values for the IC50 at 72 h in [1] and in data set [2] were 1310 nM and 1520 nM, respectively. For the same compound, the IC50 with A549 worked out at 490 nM; with NCI-H1650 it was 470 nM; with HCT-116 it was 620 nM; with NCI-H1299, 210 nM; in data set [3], 230 nM. Further, the Activity result in the data set with HCC827 [4] is “Time-dependent-effect”; with HCC827 [5] it was 19.35%; in the data set with HCC827 [9] it was 1.17%; in the data set with HCC827 [10], 1.47%; in the data set with HCC827 [11], 0.96%; in data set [14], “Non-toxic”. The Activity result in data set [15] is listed as “Toxic”; in data set [16], “Non-toxic”. For the same compound, the outcome in the data set with HCC827 [6], in the data set on HCC827 [7], with HCC827 [12], with HeLa [17] and in the data set with HeLa [18] was Active. Further, the viability at 0.5 µM in the data set with HCC827 [8] worked out at 88.5%. Moreover, the inhibition result in the data set with HCC827 [13] was “Active”.
